Assay results from PubChem BioAssay (NCI).
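Results reflect a 48-hour exposure of cells in 96-well plates to compound at five concentrations. GI50 = concentration required for 50% inhibition of growth. TGI marks complete inhibition of growth.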

Assays:
Experiment in all cases: growth of human tumour cells (NCI), 48 h
SK-OV-3 ovarian = system: SK-OV-3 ovarian
SK-MEL-2 melanoma = system: SK-MEL-2 melanoma
SK-MEL-5 melanoma = system: SK-MEL-5 melanoma
NCI-H522 lung = system: NCI-H522 lung
CAKI-1 renal = system: CAKI-1 renal
MDA-MB-231 breast = system: MDA-MB-231 breast
SF-268 CNS = system: SF-268 CNS
T-47D breast = system: T-47D breast
MDA-MB-435 = system: MDA-MB-435
NCI/ADR-RES ovarian = system: NCI/ADR-RES ovarian

Compound	GI50 (SK-OV-3 ovarian)	TGI (SK-OV-3 ovarian)	GI50 (SK-MEL-2 melanoma)	TGI (SK-MEL-2 melanoma)	GI50 (SK-MEL-5 melanoma)	TGI (SK-MEL-5 melanoma)	GI50 (NCI-H522 lung)	TGI (NCI-H522 lung)	GI50 (CAKI-1 renal)	TGI (CAKI-1 renal)	GI50 (MDA-MB-231 breast)	TGI (MDA-MB-231 breast)	GI50 (SF-268 CNS)	TGI (SF-268 CNS)	GI50 (T-47D breast)	TGI (T-47D breast)	GI50 (MDA-MB-435)	TGI (MDA-MB-435)	GI50 (NCI/ADR-RES ovarian)	TGI (NCI/ADR-RES ovarian)
CSC1=Nc2c(c(C)c(-c3ccccc3)n2COC(CO)CO)C2=NC(=O)CC(C)N12 (stereo not given)	> 100 µM	> 100 µM	> 100 µM	> 100 µM	> 100 µM	> 100 µM	> 100 µM	> 100 µM	> 100 µM	> 100 µM	> 100 µM	> 100 µM	> 100 µM	> 100 µM	> 100 µM	> 100 µM	> 100 µM	> 100 µM	> 100 µM	> 100 µM
CCOC(=O)c1c(CN2CCN(C)CC2)nc2ccc(Cl)cc2c1-c1ccccc1	12.8 µM	25.8 µM	12.9 µM	26.2 µM	1.72 µM	3.18 µM	11.7 µM	25.3 µM	2.95 µM	13.6 µM	7.16 µM	21.2 µM	10.2 µM	23.5 µM	9.41 µM	24.4 µM	2.71 µM	7.87 µM	5.35 µM	14.5 µM
COc1ccc(/C=C/C(=O)c2cc3c(N)c(C(=O)Nc4ccc(OC)cc4)sc3nc2C)cc1	0.215 µM	> 50 µM	0.359 µM	> 50 µM	0.203 µM	4.03 µM	0.178 µM	> 26.5 µM	0.593 µM	> 50 µM	1.28 µM	22 µM	2.02 µM	> 50 µM	0.403 µM	> 50 µM	0.0189 µM	0.0777 µM	0.185 µM	1.49 µM
CCOc1ccc2cc(-c3nn(CC4CCNCC4)c4ncnc(N)c34)ccc2c1	17.3 µM	39.3 µM	15.8 µM	29.8 µM	16.4 µM	29.9 µM	15.8 µM	30.4 µM	19.2 µM	60 µM	11.1 µM	25.5 µM	12 µM	28.2 µM	18.2 µM	50.5 µM	13.1 µM	25.8 µM	15.6 µM	29.8 µM
NC(=O)/C(=C/n1cnc(-c2cc(C(F)(F)F)cc(C(F)(F)F)c2)n1)c1cncnc1	1.57 µM	43.1 µM	0.353 µM	5.75 µM	1.13 µM	10.2 µM	0.331 µM	4.33 µM	0.275 µM	14.1 µM	0.186 µM	16.9 µM	0.516 µM	11.9 µM	0.116 µM	11.8 µM	0.237 µM	3.89 µM	0.517 µM	23.9 µM
NC1=NCN(C2OC(CO)C(O)C2O)C(=O)N1 (stereo not given)	–	943 µM	–	7.06 µM	–	335 µM	–	144 µM	–	339 µM	–	568 µM	–	2460 µM	–	759 µM	–	154 µM	–	2270 µM
